Values quoted from earlier work, collected in EP1337618B1, “CLEANING TABLETS” (UNILEVER N.V., priority 2000, dated 2002).
Read-outs that look alike come from different tables or passages of the source.

[1] = at 20°C, other common materials

solubility in water (at 20°C)	Water Solubility (deionised water at 20°C, highly water-soluble materials) [g/100g]	Compound	Water Solubility [1] [g/100g]
–	–	O=BO[O-].[Na+] [Sodium perborate anhydrous]	3.7
–	–	O=P(O)(O)OP(=O)(O)OP(=O)(O)O [Sodium tripolyphosphate anhydrous]	15
exceeding 100 gms per 100ml water	>100	NC(N)=O [Urea]	–
